Test results taken from patent publication US12421249B2, “Inhibitors of APOL1 and methods of using same” (Vertex Pharmaceuticals Incorporated, priority 2020, dated 2025).
pIC50: −log10 of the molar value.

Biological target: T1, APOL1 (Homo sapiens, UniProt O14791)
T1 sequence (O14791 1-398 S342G/I384M): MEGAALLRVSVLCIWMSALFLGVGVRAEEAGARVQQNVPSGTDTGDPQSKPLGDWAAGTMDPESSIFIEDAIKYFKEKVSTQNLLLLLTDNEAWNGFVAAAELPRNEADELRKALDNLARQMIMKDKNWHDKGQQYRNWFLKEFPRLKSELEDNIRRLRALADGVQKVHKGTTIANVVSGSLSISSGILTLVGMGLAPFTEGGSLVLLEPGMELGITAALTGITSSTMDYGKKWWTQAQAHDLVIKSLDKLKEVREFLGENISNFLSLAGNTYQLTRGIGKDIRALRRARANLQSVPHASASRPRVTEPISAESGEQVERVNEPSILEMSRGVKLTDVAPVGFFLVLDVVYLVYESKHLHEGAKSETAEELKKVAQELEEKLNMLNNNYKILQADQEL
Test: Multi-Tox Assay (MultiTox-Fluor Multiplex Cytotoxicity Assay in tet-inducible APOL1 T-REx-HEK293 cells; Table 46 does not say which APOL1 variant G0/G1/G2)
Format: cell-based
Conditions: APOL1 variant not given; for pIC50: IP50 = IC50 for cell proliferation

With `C[C@H]1C[C@@]2(C[C@@H](c3cn(Cc4ccc(O)nc4)nn3)N1)OCC(F)(F)c1cc(Cl)sc12` [Compound 316] the “Multi-Tox Assay Max Activity (%)” value was 95.0% and the pIC50 was 6.30 to 7.30.
With `C[C@H]1C[C@@]2(C[C@@H](c3cn(Cc4cnccn4)nn3)N1)OCC(F)(F)c1cc(Cl)sc12` [Compound 317] the “Multi-Tox Assay Max Activity (%)” value was 98.0% and the pIC50 was 6.30 to 7.30.
In the case of `Cc1ncc(Cn2cc([C@@H]3C[C@]4(C[C@H](C)N3)OCC(F)(F)c3cc(Cl)sc34)nn2)cn1` [Compound 318], the “Multi-Tox Assay Max Activity (%)” value was 99.0% and the pIC50 was > 7.30.
With `COc1cccc(Cn2cc([C@@H]3C[C@]4(C[C@H](C)N3)OCC(F)(F)c3cc(Cl)sc34)nn2)c1` [Compound 319] the “Multi-Tox Assay Max Activity (%)” value was 95.0% and the pIC50 was 6.30 to 7.30.
For `C[C@H]1C[C@@]2(C[C@@H](c3cn(Cc4cccc(O)c4)nn3)N1)OCC(F)(F)c1cc(Cl)sc12` [Compound 320], the “Multi-Tox Assay Max Activity (%)” value was 95.0% and the pIC50 was 6.30 to 7.30.
With `C[C@H]1C[C@@]2(C[C@@H](c3cn(Cc4cccnn4)nn3)N1)OCC(F)(F)c1cc(Cl)sc12` [Compound 321] the “Multi-Tox Assay Max Activity (%)” value was 99.0% and the pIC50 was > 7.30.
In the case of `C[C@H]1C[C@@]2(C[C@@H](c3cn(CC(O)c4ccccc4)nn3)N1)OCC(F)(F)c1cc(Cl)sc12` (some centres unmarked) [Compound 322], the “Multi-Tox Assay Max Activity (%)” value was 97.0% and the pIC50 was 6.30 to 7.30.
For `COCCn1cc([C@@H]2C[C@]3(C[C@H](C)N2)OCC(F)(F)c2cc(Cl)sc23)nn1` [Compound 323], the “Multi-Tox Assay Max Activity (%)” value was 100.0% and the pIC50 was > 7.30.
In the case of `C[C@H]1C[C@@]2(C[C@@H](c3cn(CC(F)F)nn3)N1)OCC(F)(F)c1cc(Cl)sc12` [Compound 324], the “Multi-Tox Assay Max Activity (%)” value was 96.0% and the pIC50 was 6.30 to 7.30.
`CCC(O)Cn1cc([C@@H]2C[C@]3(C[C@H](C)N2)OCC(F)(F)c2cc(Cl)sc23)nn1` (some centres unmarked) [Compound 325] was tested, and the “Multi-Tox Assay Max Activity (%)” value was 98.0% and the pIC50 was > 7.30.
`Cc1c(Cn2cc([C@@H]3C[C@]4(C[C@H](C)N3)OCC(F)(F)c3cc(Cl)sc34)nn2)cnn1C` [Compound 326] was tested, and the “Multi-Tox Assay Max Activity (%)” value was 97.0% and the pIC50 was 6.30 to 7.30.
`CC(C)N1CC(Cn2cc([C@@H]3C[C@]4(C[C@H](C)N3)OCC(F)(F)c3cc(Cl)sc34)nn2)CC1=O` (some centres unmarked) [Compound 327] was tested, and the “Multi-Tox Assay Max Activity (%)” value was 98.0% and the pIC50 was > 7.30.
With `C[C@H]1C[C@@]2(C[C@@H](c3cn(CCC(N)=O)nn3)N1)OCC(F)(F)c1cc(Cl)sc12` [Compound 328] the “Multi-Tox Assay Max Activity (%)” value was 100.0% and the pIC50 was > 7.30.
With `C[C@H]1C[C@@]2(C[C@@H](c3cn(CC4(F)CCOCC4)nn3)N1)OCC(F)(F)c1cc(Cl)sc12` [Compound 329] the pIC50 was < 6.30.
With `CCn1cc(Cn2cc([C@@H]3C[C@]4(C[C@H](C)N3)OCC(F)(F)c3cc(Cl)sc34)nn2)cn1` [Compound 330] the “Multi-Tox Assay Max Activity (%)” value was 99.0% and the pIC50 was > 7.30.
`C[C@H]1C[C@@]2(C[C@@H](c3cn(Cc4cocn4)nn3)N1)OCC(F)(F)c1cc(Cl)sc12` [Compound 331] was tested, and the “Multi-Tox Assay Max Activity (%)” value was 98.0% and the pIC50 was > 7.30.
With `C[C@H]1C[C@@]2(C[C@@H](c3cn(Cc4ccccn4)nn3)N1)OCC(F)(F)c1cc(Cl)sc12` [Compound 332] the “Multi-Tox Assay Max Activity (%)” value was 96.0% and the pIC50 was 6.30 to 7.30.
`COc1cc(F)cc(Cn2cc([C@@H]3C[C@]4(C[C@H](C)N3)OCC(F)(F)c3cc(Cl)sc34)nn2)c1` [Compound 333] was tested, and the “Multi-Tox Assay Max Activity (%)” value was 97.0% and the pIC50 was 6.30 to 7.30.
`Cc1ccc(Cn2cc([C@@H]3C[C@]4(C[C@H](C)N3)OCC(F)(F)c3cc(Cl)sc34)nn2)nc1` [Compound 334] was tested, and the “Multi-Tox Assay Max Activity (%)” value was 96.0% and the pIC50 was 6.30 to 7.30.
In the case of `COc1ccc(Cn2cc([C@@H]3C[C@]4(C[C@H](C)N3)OCC(F)(F)c3cc(Cl)sc34)nn2)cc1` [Compound 335], the “Multi-Tox Assay Max Activity (%)” value was 96.0% and the pIC50 was 6.30 to 7.30.
With `Cc1cc(Cn2cc([C@@H]3C[C@]4(C[C@H](C)N3)OCC(F)(F)c3cc(Cl)sc34)nn2)ccn1` [Compound 336] the “Multi-Tox Assay Max Activity (%)” value was 99.0% and the pIC50 was > 7.30.
With `Cc1nc(Cn2cc([C@@H]3C[C@]4(C[C@H](C)N3)OCC(F)(F)c3cc(Cl)sc34)nn2)oc1C` [Compound 337] the “Multi-Tox Assay Max Activity (%)” value was 99.0% and the pIC50 was > 7.30.
For `Cc1nnc(Cn2cc([C@@H]3C[C@]4(C[C@H](C)N3)OCC(F)(F)c3cc(Cl)sc34)nn2)[nH]1` [Compound 339], the “Multi-Tox Assay Max Activity (%)” value was 97.0% and the pIC50 was 6.30 to 7.30.
`COCCOCCn1cc([C@@H]2C[C@]3(C[C@H](C)N2)OCC(F)(F)c2cc(Cl)sc23)nn1` [Compound 340] was tested, and the “Multi-Tox Assay Max Activity (%)” value was 98.0% and the pIC50 was 6.30 to 7.30.
In the case of `Cc1nccn1CCCn1cc([C@@H]2C[C@]3(C[C@H](C)N2)OCC(F)(F)c2cc(Cl)sc23)nn1` [Compound 341], the “Multi-Tox Assay Max Activity (%)” value was 98.0% and the pIC50 was 6.30 to 7.30.
`COCC(O)Cn1cc([C@@H]2C[C@]3(C[C@H](C)N2)OCC(F)(F)c2cc(Cl)sc23)nn1` (some centres unmarked) [Compound 342] was tested, and the “Multi-Tox Assay Max Activity (%)” value was 98.0% and the pIC50 was 6.30 to 7.30.
For `C[C@H]1C[C@@]2(C[C@@H](c3cn(CC4CCCCO4)nn3)N1)OCC(F)(F)c1cc(Cl)sc12` (some centres unmarked) [Compound 343], the “Multi-Tox Assay Max Activity (%)” value was 97.0% and the pIC50 was 6.30 to 7.30.
In the case of `C[C@H]1C[C@@]2(C[C@@H](c3cn(CCCS(C)(=O)=O)nn3)N1)OCC(F)(F)c1cc(Cl)sc12` [Compound 344], the “Multi-Tox Assay Max Activity (%)” value was 99.0% and the pIC50 was > 7.30.
For `CC(C)C(=O)NCCn1cc([C@@H]2C[C@]3(C[C@H](C)N2)OCC(F)(F)c2cc(Cl)sc23)nn1` [Compound 345], the “Multi-Tox Assay Max Activity (%)” value was 99.0% and the pIC50 was > 7.30.
In the case of `C[C@H]1C[C@@]2(C[C@@H](c3cn(Cc4nc5ncccc5[nH]4)nn3)N1)OCC(F)(F)c1cc(Cl)sc12` [Compound 346], the “Multi-Tox Assay Max Activity (%)” value was 99.0% and the pIC50 was 6.30 to 7.30.
In the case of `C[C@H]1C[C@@]2(C[C@@H](c3cn(Cc4ccccc4S(C)(=O)=O)nn3)N1)OCC(F)(F)c1cc(Cl)sc12` [Compound 347], the “Multi-Tox Assay Max Activity (%)” value was 96.0% and the pIC50 was 6.30 to 7.30.
For `COc1ccc(C(O)Cn2cc([C@@H]3C[C@]4(C[C@H](C)N3)OCC(F)(F)c3cc(Cl)sc34)nn2)cc1` (some centres unmarked) [Compound 348], the “Multi-Tox Assay Max Activity (%)” value was 97.0% and the pIC50 was 6.30 to 7.30.
With `C[C@H]1C[C@@]2(C[C@@H](c3cn(Cc4n[nH]c5ccccc45)nn3)N1)OCC(F)(F)c1cc(Cl)sc12` [Compound 349] the “Multi-Tox Assay Max Activity (%)” value was 91.0% and the pIC50 was 6.30 to 7.30.
For `C[C@H]1C[C@@]2(C[C@@H](c3cn(Cc4ncnc5[nH]ccc45)nn3)N1)OCC(F)(F)c1cc(Cl)sc12` [Compound 350], the “Multi-Tox Assay Max Activity (%)” value was 99.0% and the pIC50 was > 7.30.
`Cc1cc(C)nc(CCn2cc([C@@H]3C[C@]4(C[C@H](C)N3)OCC(F)(F)c3cc(Cl)sc34)nn2)c1` [Compound 351] was tested, and the “Multi-Tox Assay Max Activity (%)” value was 98.0% and the pIC50 was > 7.30.
For `C[C@H]1C[C@@]2(C[C@@H](c3cn(Cc4ccc(C#N)nc4)nn3)N1)OCC(F)(F)c1cc(Cl)sc12` [Compound 352], the “Multi-Tox Assay Max Activity (%)” value was 99.0% and the pIC50 was > 7.30.
`Cc1noc(C)c1Cn1cc([C@@H]2C[C@]3(C[C@H](C)N2)OCC(F)(F)c2cc(Cl)sc23)nn1` [Compound 353] was tested, and the “Multi-Tox Assay Max Activity (%)” value was 100.0% and the pIC50 was > 7.30.
With `C[C@H]1C[C@@]2(C[C@@H](c3cn(CCOc4ccccc4F)nn3)N1)OCC(F)(F)c1cc(Cl)sc12` [Compound 354] the “Multi-Tox Assay Max Activity (%)” value was 99.0% and the pIC50 was 6.30 to 7.30.
With `C[C@H]1C[C@@]2(C[C@@H](c3cn(Cc4ccc(S(C)(=O)=O)cc4)nn3)N1)OCC(F)(F)c1cc(Cl)sc12` [Compound 355] the “Multi-Tox Assay Max Activity (%)” value was 98.0% and the pIC50 was 6.30 to 7.30.
